Experimental data reported in US7598392B2, “2-amido-4-phenylthiazole derivatives, the preparation and the therapeutic use thereof” (sanofi-aventis, priority 2004, dated 2009).

These molecules were tested on human THP-1 monocytes (assay: Inhibition of chemotaxis on human THP-1 monocytes).
Assay type: cell-based
Experimental: The inhibition of chemotaxis was also measured on human THP-1 monocytes (sold by DSMZ—Germany) using a technique adapted from that described by A. Albini et al., Cancer Res., 1987, 47, 3239-3245. Under these conditions, hMCP-1 has an IC50 of 6 nM.

Row | Molecule | IC50 [nM]
1 | hMCP-1: "hMCP-1 (human monocyte chemotactic protein)", "belongs to the group or CC chemokines and which is a natural agonist of the CCR2b receptor" | 6

What follows are molecules tested against T1, human CCR2b receptor (Homo sapiens, UniProt P41597) (assay: Inhibitory activity on cells expressing the human CCR2b receptor).
T1 sequence (P41597 1-360 isoform P41597-2): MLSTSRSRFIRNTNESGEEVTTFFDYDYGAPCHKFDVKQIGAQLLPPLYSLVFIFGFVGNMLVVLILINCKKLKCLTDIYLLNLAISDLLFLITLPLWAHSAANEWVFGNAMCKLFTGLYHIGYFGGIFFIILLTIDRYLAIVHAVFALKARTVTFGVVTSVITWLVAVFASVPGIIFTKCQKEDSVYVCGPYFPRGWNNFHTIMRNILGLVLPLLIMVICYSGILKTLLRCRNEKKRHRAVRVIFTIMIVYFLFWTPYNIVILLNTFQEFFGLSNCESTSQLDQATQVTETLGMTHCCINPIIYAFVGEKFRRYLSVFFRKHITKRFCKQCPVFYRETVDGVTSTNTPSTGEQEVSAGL
Assay type: cell-based
Experimental: The inhibitory activity of the compounds according to the invention on cells expressing the human CCR2b receptor was measured.

Row | Molecule | IC50 [nM]
2 | COc1ccc(C2CCCCC2)cc1-c1csc(NC(=O)C2CCCN(C(=O)c3ccncn3)C2)n1 (stereo not drawn) [Compound 107, 1-(pyrimidine-4-carbonyl)piperidine-3-carboxylic acid [4-(5-cyclohexyl-2-methoxyphenyl)thiazol-2-yl]amide] | 5
3 | COc1ccc(C2CCCCC2)cc1-c1csc(NC(=O)C2CCCN(C(=O)c3ccoc3C)C2)n1 (stereo not drawn) [Compound 31] | 44
4 | hMCP-1: "hMCP-1 (human monocyte chemotactic protein)", "belongs to the group or CC chemokines and which is a natural agonist of the CCR2b receptor" | 0.57
5 | CCCOc1ccc(OC)c(-c2csc(NC(=O)C3CCCN(C(=O)c4cc([N+](=O)[O-])cc([N+](=O)[O-])c4)C3)n2)c1 (stereo not drawn) [Compound 1] | 290
6 | COc1ccc(C2CCCCC2)cc1-c1csc(NC(=O)C2CCCN(C(=O)c3cccc(C#N)c3)C2)n1 (stereo not drawn) [Compound 20] | 25
